A melting point compilation (Tetko et al.; mined from patent text by program, amines drawn as free bases though some values may be those of a salt)

SMILES	melting point [°C]
COc1cc(/C=C/[N+](=O)[O-])cc(OC)c1	132
NC(=S)N1CCN(c2nc3cccccc-3n2)CC1	245 to 247
CCOC(=O)CCCOc1ccc(CC(C)(C)N)cc1	103 to 105
Cn1ccnc1Sc1ccc(Nc2c(C#N)cnc3cc(/C=C/CCN4CCCC4)ccc23)cc1Cl	185 to 191
O=C/C=C/c1c(-c2ccc(F)cc2)n(CCc2ccccc2)c(=O)c2ccccc12	133 to 134
O=C(CN1C(=O)CC1SCc1ccccc1)NCCCCCCc1ccccc1 (stereo not drawn)	65 to 70
Fc1ccc2[nH]c(C3=Cc4ccccc4C3)cc2c1	272 to 275
O=C(Nc1cc(OCCCO/N=C/c2ccc(C(F)(F)F)cc2)ccc1C(=O)O)c1ccc(C(F)(F)F)cc1	209 to 210
Cc1nc(-c2ncn3c2COC(=O)c2c(Cl)cccc2-3)no1	253 to 255
Cc1cccc2c(=O)c3cccc(CBr)c3oc12	171 to 172
C#CC(C)Nc1c(C)cccc1C (stereo not drawn)	32 to 33
CC[C@@H]1NC(C)(C)CO[C@@]1(O)c1cccc(Cl)c1	160 to 161
COc1ccc(/C=C/c2cc(/C=C/c3ccc4cc[nH]c4c3)n[nH]2)c(OCc2ccccn2)c1	107 to 115
O=C(O)/C=C/c1ccc(-c2nc3c([nH]2)c(=O)n(CC2CCCCC2)c(=O)n3CC2CCCCC2)s1	> 300
CCCc1c(SCCCOc2ccc(C(C)O)c(OCCCC(=O)O)c2CCC)ccc(C(C)=O)c1O (stereo not drawn)	85 to 86
C1COCCNCCSCCN1	74 to 76
O=C1CCC(Br)C(=O)N1 (stereo not drawn)	76 to 83
O=C(NC(c1ccccc1)c1cc2ccncc2[nH]1)c1ccncc1 (stereo not drawn)	182 to 192
CC(=O)Nc1ccc(-c2nc(C(=O)Nc3nccs3)c(-c3ccccc3C)[nH]2)cc1	269 to 271

SMILES	melting point [°C]
N#Cc1ccc(N2C(=O)N(CCF)C3(CCCC3)C2=O)cc1C(F)(F)F	115
COc1c(N(C)S(=O)(=O)c2ccc(C)cc2)ccccc1=O	94.5
CCCN(CCC)CCc1ccc(O)c(NC(N)=O)c1	168 to 171
COC(=O)C(F)=CC1C(C(=O)OC(C#N)c2cccc(Oc3ccccc3)c2)C1(C)C (stereo not drawn)	70
O=C(O)CCc1cn(Cc2ccc(OCc3ccc4ccccc4n3)cc2)nc1-c1ccc(F)cc1	178 to 179
CN(CC(O)C(O)C(O)C(O)CO)C(=O)c1c(I)c(N)c(I)c(N)c1I (stereo not drawn)	110
NS(=O)(=O)c1cc2cc(-c3nc(C(F)(F)F)c[nH]3)ccc2s1	285 to 286
CCCCOC(=O)c1ccc(C(=O)c2ccccc2)cc1	50 to 60
CCCCCCCCCCOc1cc(OCCCCCCCCCC)cc(N(CC(=O)O)CC(=O)OC)c1	61 to 62
COC(=O)Cc1c(Cl)nc(C)nc1Cl	67 to 68
CCCc1c(OCCOc2ccccc2C(=O)NCCCCc2cccnc2)ccc(C(C)=O)c1O	77 to 80
Cc1nc2ccc3ccc(CNc4ccc5c(c4)CN([C@@H](CCC(=O)O)C(=O)N[C@@H](Cc4ccccc4)C(=O)O)C5=O)cc3c2c(=O)[nH]1	180
C=CCOC(=O)C1=C(C)NC(C)=C(C(=O)OCC=C)C1c1ccc(Br)cc1	130 to 131
CC(=O)OCCCN1CCC(CNC(=O)[C@@H]2CCCN2S(=O)(=O)c2ccc(Cl)c(COc3cccc4c(-n5ccnc5)cc(C)nc34)c2Cl)CC1	96
N#CN1CCC2(CC1)Oc1ccccc1C2n1cccc1 (stereo not drawn)	165 to 168
COc1ccc(-c2nc3c(o2)C(=O)c2ccccc2C3=O)cc1	> 260
O=C(OCc1ccccc1)C(CO)N(C(=O)OCc1ccccc1)C(=O)c1ccccc1 (stereo not drawn)	94 to 95
O=C(CNc1ccccc1)c1ccccc1	97 to 99
O=S(=O)(c1[nH]c(-c2ccc(Cl)cc2)c(S(=O)(=O)C(F)(F)F)c1Br)C(F)(F)F	115 to 135

SMILES	melting point [°C]
Cc1cc(Nc2ncnc3ccn(CCNC(=O)CS(C)(=O)=O)c23)ccc1Oc1cccc(OC(F)(F)F)c1	106 to 108
COc1ccc2c(CNCCCCCC(=O)O)cc3cc(OC)c(OC)cc3c2c1	133 to 134
COCc1cnc2c(NC(=O)c3c(Cl)cccc3Cl)cccc2c1CCl	164
O=C(N[C@@H](Cc1ccc(C(F)(F)F)cc1)[C@H](O)c1ccc(F)cc1)c1ccc(C(F)F)c2ccccc12	212 to 213
Clc1cccc(-c2cnn(-c3ccccn3)c2)c1	110 to 111
CC(C)(C)c1cc(-c2nnc(C(N)=S)s2)cc(C(C)(C)C)c1O	215 to 216
CS(=O)(=O)Nc1ccc(-c2nc(C(F)(F)F)c[nH]2)cc1	253 to 255
COc1ccc(-n2nc(-c3ccc(OC)c(CCC(=O)N(C)O)c3OC)cc2-c2ccc(Cl)cc2)cc1	90 to 92
COc1ccc(Cn2cnc3c(-c4ccco4)nc(C#N)nc32)cc1	205 to 207
Cc1oc(-c2ccccc2)nc1COc1ccc(CN(O)C(N)=O)cc1Cl	180 to 182
Cn1nc(-c2ccc(C(=O)O)cc2)nc1-c1ccccc1	243 to 244
Nc1nc2ccc(S(=O)(=O)n3c(CCC(=O)O)cc4cc(Cl)ccc43)cc2o1	242 to 249
Cc1nc(N)c2nc(CO)n(NC3CCOCC3)c2c1C	> 250
CC(C)(C)C(OC(=O)Cl)=C(Oc1ccc(Cl)cc1)n1cncn1	159 to 161
CC(C)n1c(=O)n(CC#N)c2cc(-c3ncc(C(F)(F)F)cc3Cl)ccc21	158 to 159
CC(C)Cc1ccc(C(C)C(=O)Oc2ccc([N+](=O)[O-])cc2)cc1 (stereo not drawn)	156 to 162
COc1cccc(/C=C/c2ccc(C(=O)O)cc2)c1	200 to 205
O=C(NCCOc1ccc(CC(Oc2ccccc2)C(=O)O)cc1)c1ccc(-c2ccc(F)cc2)cc1 (stereo not drawn)	195 to 196
Cc1ccc(-c2c(C(=O)NCc3cc(C(F)(F)F)cc(C(F)(F)F)c3)n(CCCCO)c(=O)c3cnccc23)cc1	128 to 131

Other lines, results leading:

melting point [°C]	SMILES
154 to 156	CCc1cc(C(=O)O)c2cc(C(C)C)cccc1-2
> 200	N#CCNc1nc(N2CCc3ccccc3CC2)c(C#N)c(=O)[nH]1
224 to 225	O=C1COc2cc(C(O)(C(F)(F)F)C(F)(F)F)ccc2N1
147	CCCCc1sc2ccc([N+](=O)[O-])cc2c1C(=O)c1ccc(O)cc1
188	COc1ccc(Cn2ccnc2S)cc1Br
132 to 133	Oc1ccc(C(F)(F)F)c2ccccc12
164	COc1ccc(CC2(C(F)F)NC(=O)NC2=O)cc1 (stereo not drawn)
166 to 168	CNC(=O)C1=CC(C)(C)Oc2ccc([N+](=O)[O-])cc21
174 to 176	O=C(Nc1cc2c(s1)-c1ccccc1OC2C1=CCCC=C1)C(F)(F)F (stereo not drawn)
123 to 124	O=C1c2ccccc2C(O)N1CCBr (racemic)
123 to 126	O=C1COc2cc(NC(=O)C(=O)N3CCC(Cc4ccccc4)CC3)ccc2N1
114 to 115	CCOC(=O)c1cnc(Cl)nc1NCc1ccc(OC)c(Cl)c1
300 to 305	CCn1cc(C(=O)O)c(=O)c2cc(F)c(N3CCNC(c4sc5ccc(Cl)cc5c4C)C3)cc21 (stereo not drawn)
180 to 181	CCOCCNC(=O)c1cc2c(nc(C)n2C)c2c1CCC1(Cc3ccccc3C1)N2
168 to 170	CCC12CCC(=O)CC1CCc1cc(O)ccc12 (stereo not drawn)
128 to 130	N#CC1(NCC2CCCCC2)CCN(Cc2ccccc2)CC1
168 to 169	Cn1cc(-c2cc3cccnc3[nH]2)c2cc(OC3(C(=O)O)CCC3)ccc21
147 to 148	Cc1nc(O)n(COCc2ccccc2)c1Sc1ccccc1
230 to 232	COc1ccc(N2CCN(C)CC2)c2c1CCC(C(=O)Nc1ccc(N3CCOCC3)cc1)C2 (stereo not drawn)
261 to 274	O=C(Nc1cc(C(F)(F)F)ccc1Cl)Nc1cc(Cl)cc(Br)c1O
222 to 224	C#CCn1c(C#N)ccc1-c1ccc2c(c1)C(C)(C)OC(=O)N2

melting point [°C]	SMILES
113 to 115	COc1cc(OC)cc(C(=O)NCC(=O)N2c3ccccc3N(Cc3ccccc3)C(=O)[C@H]3CCC[C@H]32)c1 (relative stereo)
80 to 82	COCC(=O)N(c1c(C)ccc(Cl)c1C)C1CCOC1=O (stereo not drawn)
179 to 182	CCOC(=O)c1cnc(N2CCn3ccnc3C2)nc1NCc1ccc(OC)c(Cl)c1
105 to 109	CCOC(=O)C(=O)C(C#N)c1cccc(Oc2ccccc2)c1 (stereo not drawn)
82 to 90	CS(=O)(=O)Nc1cc([C@@H](O)CNC2CCN(c3ccc(NC(=O)CCC4CCCC4)cc3)CC2)ccc1O
172 to 175	CN1CCN(c2ccc(Nc3ncc4c(n3)S/C(=C/c3ccc(F)cc3)C(=O)N4)cc2)CC1
113 to 115	COc1cccc(COc2cc3c(cc2-c2cc(C=CC(=O)O)ccc2O)C(C)(C)CCC3(C)C)c1
153 to 155	Cc1nc(N2CCOCC2)c2c(n1)N(CC(O)CO)C(=O)CO2 (stereo not drawn)
122	COc1nnc2cc(Cl)ccc2n1
> 300	O=C1N(Cc2cc(=O)[nH]c(=O)[nH]2)c2ccccc2C12COc1cc3c(cc12)OCO3 (stereo not drawn)
174 to 175	CCOc1ccccc1N1C(=O)CC(N(O)c2ccccc2)C1=O (stereo not drawn)
> 250	O=C1NCCCC12c1ccccc1-c1ccccc12
189 to 190	OCc1cc2ccccc2nc1I
98 to 103	CCOC(=O)Cc1ncc2c(n1)-c1ccc(Cl)cc1C(c1ccccc1F)=NC2
224 to 227	Fc1cccc(Nc2nc(OCC3CCCCC3)c3[nH]cnc3n2)c1
132	CCCC(=O)C1=C(O)CC(c2cc([N+](=O)[O-])ccc2F)CC1=O (stereo not drawn)
271	N#Cc1c(N2CCN(C(=O)c3cccs3)CC2)c2sccc2n(Cc2cccc(F)c2)c1=O
120 to 125	COc1ccccc1NC(=O)Nc1ccc(C2=CCN(C(=O)Nc3ccc(OCCO)cc3Cl)CC2)cc1
168 to 170	CCOC(=O)C(c1ccc(Nc2nc(-c3cccc(NC(=O)c4cc5c(s4)CCCCC5)c3C)cn(C)c2=O)cc1)N1CCN(CC)CC1 (stereo not drawn)
212 to 213	CCn1c(C#N)ccc1-c1ccc2c(c1)C(C)(C)OC(=S)N2
